Measurements reported in article PMC5383603 (Journal of Korean Medical Science, 2017).
Like-named read-outs stand apart in the source and are kept apart here. Each block holds one compound with its values, some of them ahead of it.

Key:
[1] = mean ± SD
[2] = test system: gastric acid secretion; conditions: cited from earlier work
[3] = Adverse events in the clinical study; type: in vivo, healthy Korean volunteers; conditions: CYP2C19 PM group; 20 mg oral once daily for 8 days

Metabolic ratio omeprazole sulfone (AUC0→12hr, omeprazole sulfone/AUC0→12hr, omeprazole) ([1]; multiple dosing, EM (n = 8)): 2.04 ± 2.39 | Metabolic ratio omeprazole sulfone (AUC0→12hr, omeprazole sulfone/AUC0→12hr, omeprazole) ([1]; multiple dosing, IM (n = 6)): 0.87 ± 0.19 | Metabolic ratio omeprazole sulfone (AUC0→12hr, omeprazole sulfone/AUC0→12hr, omeprazole) ([1]; multiple dosing, PM (n = 8)): 0.90 ± 0.30 | Metabolic ratio omeprazole sulfone (AUC0→12hr, omeprazole sulfone/AUC0→12hr, omeprazole) ([1]; single dosing, EM (n = 8)): 0.78 ± 0.17 | Metabolic ratio omeprazole sulfone (AUC0→12hr, omeprazole sulfone/AUC0→12hr, omeprazole) ([1]; single dosing, IM (n = 6)): 2.89 ± 2.63 | Metabolic ratio omeprazole sulfone (AUC0→12hr, omeprazole sulfone/AUC0→12hr, omeprazole) ([1]; single dosing, PM (n = 8)): 0.65 ± 0.08
SMILES: COc1ccc2nc(S(=O)(=O)Cc3ncc(C)c(OC)c3C)[nH]c2c1 [omeprazole sulfone]

SMILES: COc1c(C)cnc(C[S+]([O-])c2nc3ccc(O)cc3[nH]2)c1C (stereo not drawn) [5-O-demethylomeprazole]
effect on gastric acid secretion [2]: does not have an effect on gastric acid secretion

SMILES: COc1ccc2[nH]c([S+]([O-])Cc3ncc(C)c(OC)c3C)nc2c1 (stereo not drawn) [omeprazole, reference compound]
omeprazole-related adverse event [3]: No omeprazole-related adverse event | duration of effect after a single dose ([2]; drug still effective after a single dose): 24 to 72 h
